Data taken from US6989153B2, “Radiation sensitive liposomes” (Varian Medical Systems Technologies, Inc., priority 1999, dated 2006).

Experiment: Ionizing radiation initiated polymerization of liposomes, by loss of monomer absorption intensity
Assay type: physicochemical
Details: for dependence of extent of polymerization on continuous or discontinuous exposure: ionizing radiation; for effect of dissolved oxygen on ionizing radiation initiated polymerization: liposomes in aqueous buffer, maximum dose rate 2.1×10^4 rad/h
Source text: The relative sensitivity to ionizing radiation of liposomes composed of either bis-SorbPC (1; FIG. 5), bis-DenPC (2; FIG. 5), or bis-AcrylPC (3; FIG. 5) was investigated. These polymerizable colipids have different reactivities that control the initial rate of polymerization, extent of polymerization, and inhibition by oxygen. The interaction of ionizing radiation with water produces radical species that can initiate radical chain polymerizations.
The rate of the ionizing radiation initiated polymerization (Rp) of liposomes composed of either bis-SorbPC, bis-DenPC, or bis-AcrylPC was determined by the loss of monomer absorption intensity. The maximum dose rate at the liposome samples was 2.1×10^4 rad/h. This intensity could be attenuated if desired. […] Radical polymerization of acryloyl functionalities are very sensitive to oxygen due to the high energy of the propagating species. In contrast, if the bis-AcrylPC liposome suspension was purged of oxygen the monomer could be converted to polymer in a few minutes. The Rp for bis-SorbPC liposomes in water (with or without oxygen present) was about twice that of bis-DenPC liposomes. The liposomes composed of bis-AcrylPC (without oxygen) were about 10 times more reactive than bis-SorbPC liposomes.
The usual experimental protocol for radiation exposure of the liposome samples utilized discontinuous exposure because samples for all the time points were exposed together. […] In some experiments the samples were exposed continuously. The percent loss of monomer depended on the total exposure, but was insensitive to whether the radiation was delivered in a continuous or punctuated manner.

Compound | dependence of extent of polymerization on continuous or discontinuous exposure | effect of dissolved oxygen on ionizing radiation initiated polymerization | rate of polymerization (Rp) relative to bis-DenPC liposomes (liposomes in water, with or without oxygen present) | time for conversion of monomer to polymer (liposome suspension purged of oxygen) | change in monomer concentration (oxygen present, after 120 minutes of irradiation at the maximum dose rate) | reactivity relative to bis-SorbPC liposomes (without oxygen)
CC=CC=CC(=O)OCCCCCCCCCC(=O)OC[C@H](COP(=O)([O-])OCC[N+](C)(C)C)OC(=O)CCCCCCCCCOC(=O)C=CC=CC [bis-SorbPC] | independent of whether the exposure to ionizing radiation was continuous or discontinuous | relatively insensitive to the presence of dissolved oxygen | about twice |  |  | 
bis-AcrylPC | independent of whether the exposure to ionizing radiation was continuous or discontinuous | inhibited by oxygen |  | a few minutes | no change in the monomer concentration | about 10 times
bis-DenPC |  | relatively insensitive to the presence of dissolved oxygen |  |  |  | 
